Experimental data reported in PubChem BioAssay (NCI).
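Test compounds were applied to cells in 96-well plates for 48 hours at 5 doses. GI50 marks 50% less growth. TGI: concentration producing complete growth inhibition.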

How the values were obtained:
Test in all cases: NCI tumour cell line growth inhibition, 48 h
[1] = system: SF-295 CNS
[2] = system: NCI-H23 lung
[3] = system: NCI-H522 lung
[4] = system: UACC-62 melanoma
[5] = system: KM12 colon
[6] = system: HOP-92 NSCLC
[7] = system: OVCAR-8 ovarian
[8] = system: SK-OV-3 ovarian
[9] = system: CAKI-1 renal
[10] = system: SN12C renal
[11] = system: U251 CNS
[12] = system: HS 578T breast
[13] = system: 786-0 renal
[14] = system: ACHN renal
[15] = system: SK-MEL-2 melanoma
[16] = system: TK-10 renal
[17] = system: MALME-3M melanoma
[18] = system: MOLT-4 leukemia
[19] = system: UACC-257 melanoma
[20] = system: HOP-62 NSCLC
[21] = system: HCT-15 colon
[22] = system: K-562 leukemia
[23] = system: RXF 393 renal
[24] = system: MDA-MB-435
[25] = system: HCT-116 colon
[26] = system: PC-3 prostate
[27] = system: MCF7 breast
[28] = system: OVCAR-4 ovarian
[29] = system: RPMI-8226 leukemia
[30] = system: MDA-MB-468 breast
[31] = system: NCI-H460 lung
[32] = system: MDA-MB-231 breast
[33] = system: OVCAR-5 ovarian
[34] = system: IGROV1 ovarian
[35] = system: COLO 205 colon
[36] = system: OVCAR-3 ovarian
[37] = system: M14 melanoma
[38] = system: SNB-75 CNS
[39] = system: SW-620 colon
[40] = system: EKVX NSCLC
[41] = system: SK-MEL-5 melanoma
[42] = system: NCI/ADR-RES ovarian
[43] = system: SF-539 CNS
[44] = system: LOX IMVI melanoma
[45] = system: CCRF-CEM leukemia
[46] = system: HT29 colon
[47] = system: HL-60(TB) leukemia
[48] = system: SF-268 CNS
[49] = system: T-47D breast
[50] = system: SR leukemia
[51] = system: A549 NSCLC
[52] = system: A498 renal
[53] = system: HCC-2998 colon
[54] = system: BT-549 breast
[55] = system: SK-MEL-28 melanoma
[56] = system: UO-31 renal
[57] = system: DU-145 prostate
[58] = system: SNB-19 CNS
[59] = system: NCI-H226 lung

O=C1Nc2cc(-c3ccc(NS(=O)(=O)c4ccc([N+](=O)[O-])cc4)cc3)ccc2/C1=C/c1ccc[nH]1
GI50 [1]: 11.4 µM | TGI [1]: 41.3 µM | GI50 [2]: 6.59 µM | TGI [2]: 26.8 µM | GI50 [3]: 6.54 µM | TGI [3]: 28 µM | GI50 [4]: 10.3 µM | TGI [4]: 29.7 µM | GI50 [5]: 14.3 µM | TGI [5]: 65.6 µM | GI50 [6]: 14.2 µM | TGI [6]: 39.6 µM | GI50 [7]: 15.8 µM | TGI [7]: 36.2 µM | GI50 [8]: 18.2 µM | TGI [8]: 49.8 µM | GI50 [9]: 14.1 µM | TGI [9]: 36.6 µM | GI50 [10]: 14.6 µM | TGI [10]: 34.8 µM | GI50 [11]: 13.6 µM | TGI [11]: 27.3 µM | GI50 [12]: 22.5 µM | TGI [12]: > 100 µM | GI50 [13]: 14.4 µM | TGI [13]: 31.1 µM | GI50 [14]: 12.1 µM | TGI [14]: 26.9 µM | TGI [15]: 71.4 µM | GI50 [16]: 16.4 µM | TGI [16]: 51.3 µM | GI50 [17]: 15.7 µM | TGI [17]: 37.4 µM | GI50 [18]: 8.77 µM | TGI [18]: > 100 µM | GI50 [19]: 11.1 µM | TGI [19]: 44.3 µM | GI50 [20]: 18 µM | TGI [20]: 44.1 µM | GI50 [21]: 11 µM | TGI [21]: 33.8 µM | GI50 [22]: 11.5 µM | TGI [22]: > 100 µM | GI50 [23]: 13.3 µM | TGI [23]: 31.6 µM | GI50 [24]: 16.1 µM | TGI [24]: 42.8 µM | GI50 [25]: 13.2 µM | TGI [25]: 29 µM | GI50 [26]: 11.6 µM | TGI [26]: 65.2 µM | GI50 [27]: 1.74 µM | TGI [27]: 14.1 µM | GI50 [28]: 10.9 µM | TGI [28]: 92.6 µM | GI50 [29]: 6.15 µM | TGI [29]: 73.6 µM | GI50 [30]: 0.778 µM | TGI [30]: 7.33 µM | GI50 [31]: 9.97 µM | TGI [31]: 32.2 µM | GI50 [32]: 16.8 µM | TGI [32]: 38.6 µM | GI50 [33]: 18.1 µM | TGI [33]: 50.2 µM | GI50 [34]: 19.4 µM | TGI [34]: > 100 µM | GI50 [35]: 16 µM | TGI [35]: 47.9 µM | GI50 [36]: 13.9 µM | TGI [36]: 32.4 µM | GI50 [37]: 13.8 µM | TGI [37]: 43.1 µM | GI50 [38]: 20.4 µM | TGI [38]: > 100 µM | GI50 [39]: 21 µM | TGI [39]: 51.2 µM | GI50 [40]: 2.28 µM | TGI [40]: 32.7 µM | GI50 [41]: 19.9 µM | TGI [41]: 72.7 µM | GI50 [42]: 14.8 µM | TGI [42]: 50.9 µM | GI50 [43]: 10.9 µM | TGI [43]: 23.8 µM | GI50 [44]: 13.7 µM | TGI [44]: 27.2 µM | GI50 [45]: 13.6 µM | TGI [45]: > 100 µM | GI50 [46]: 14.8 µM | TGI [46]: 34 µM | GI50 [47]: 27.6 µM | TGI [47]: > 100 µM | GI50 [48]: 16.4 µM | TGI [48]: 80.4 µM | GI50 [49]: 4.77 µM | TGI [49]: > 100 µM | GI50 [50]: 10.3 µM | TGI [50]: > 100 µM | GI50 [51]: 12.1 µM | TGI [51]: 28.9 µM | GI50 [52]: 18.4 µM | TGI [52]: 50.1 µM | GI50 [53]: 18.6 µM | TGI [53]: > 100 µM | GI50 [54]: 10.5 µM | TGI [54]: 34.8 µM | GI50 [55]: 12.3 µM | TGI [55]: 28 µM | GI50 [56]: 6.74 µM | TGI [56]: > 100 µM | GI50 [57]: 16 µM | TGI [57]: 33.6 µM | GI50 [58]: 16.3 µM | TGI [58]: 56.6 µM | GI50 [59]: 12.2 µM | TGI [59]: 30.1 µM
